Data set [1] concerns the target T1, proton-coupled folate transporter (PCFT) (Homo sapiens, UniProt Q96NT5).
T1 sequence (Q96NT5 1-459): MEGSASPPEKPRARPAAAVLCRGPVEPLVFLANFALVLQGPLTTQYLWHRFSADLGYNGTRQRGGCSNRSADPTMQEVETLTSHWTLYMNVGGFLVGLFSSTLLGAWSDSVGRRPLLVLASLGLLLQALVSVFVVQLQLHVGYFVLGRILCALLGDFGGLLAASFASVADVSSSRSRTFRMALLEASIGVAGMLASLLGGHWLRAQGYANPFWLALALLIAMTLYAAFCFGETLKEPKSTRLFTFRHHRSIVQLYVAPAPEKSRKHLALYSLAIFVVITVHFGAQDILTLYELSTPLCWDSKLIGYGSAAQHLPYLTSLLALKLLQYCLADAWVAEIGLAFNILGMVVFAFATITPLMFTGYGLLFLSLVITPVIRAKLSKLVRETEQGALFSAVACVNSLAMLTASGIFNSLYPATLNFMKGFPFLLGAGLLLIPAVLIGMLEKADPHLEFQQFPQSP
Put plainly: tritiated influx in HeLa R1-PCFT versus R1-11 cells. In kind it is cell-based.

Substrate in data set [2]: C#CCC(Cc1cnc2nc(N)nc(N)c2n1)c1ccc(C(=O)N[C@@H](CCC(=O)O)C(=O)O)cc1
Put plainly: cells, lysate or membranes. The conditions noted are these: pH 7.4.

In the case of `C#CCC(Cc1cnc2nc(N)nc(N)c2n1)c1ccc(C(=O)N[C@@H](CCC(=O)O)C(=O)O)cc1` (some centres unmarked) [pralatrexate], in data set [1], the “tritiated influx in HeLa R1-PCFT versus R1-11 cells (poor substrate)” value is given as “among the antifolates tested, pralatrexate was the poorest substrate for PCFT”.

B1: reduced folate carrier (RFC) (Homo sapiens) (protein)
chain: MVPSSPAVEKQVPVEPGPDPELRSWRHLVCYLCFYGFMAQIRPGESFITPYLLGPDKNFTREQVTNEITPVLSYSYLAVLVPVFLLTDYLRYTPVLLLQGLSFVSVWLLLLLGHSVAHMQLMELFYSVTMAARIAYSSYIFSLVRPARYQRVAGYSRAAVLLGVFTSSVLGQLLVTVGRVSFSTLNYISLAFLTFSVVLALFLKRPKRSLFFNRDDRGRCETSASELERMNPGPGGKLGHALRVACGDSVLARMLRELGDSLRRPQLRLWSLWWVFNSAGYYLVVYYVHILWNEVDPTTNSARVYNGAADAASTLLGAITSFAAGFVKIRWARWSKLLIAGVTATQAGLVFLLAHTRHPSSIWLCYAAFVLFRGSYQFLVPIATFQIASSLSKELCALVFGVNTFFATIVKTIITFIVSDVRGLGLPVRKQFQLYSVYFLILSIIYFLGAMLDGLRHCQRGHHPRQPPAQGLRSAAEEKAAQALSVQDKGLGGLQPAQSPPLSPEDSLGAVGPASLEQRQSDPYLAQAPAPQAAEFLSPVTTPSPCTLCSAQASGPEAADETCPQLAVHPPGVSKLGLQCLPSDGVQNVNQ
The Km is the substrate concentration at which the rate is half of its maximum. Take B1: the Km in data set [2] came out at 0.52 ± 0.2 µM.

Source of the values: publication PMC3784351 (Cancer chemotherapy and pharmacology, 2013).
